Test results reported in US7173047B2, “Benzo (f) insoindol derivatives and their use as ep4 receptor ligands” (Glaxo Group Limited, priority 2000, dated 2007).

Target: T1, human EP4 receptor (Homo sapiens, UniProt P35408)
Assay: [125I]cAMP Scintillation Proximity Assay (EP4 antagonist assay, HEK-293 cells expressing recombinant human EP4 receptor)
Type: cell-based
Set-up: expressed in transfected cells
Conditions: method of Arunlakshana and Schild, read-out: pKb (antagonist affinity) (converted)
Protocol: The CAMP assay utilises HEK-293 cells expressing the recombinant human EP4 receptor, obtained from Receptor Biology, Inc. Beltsville, Md., USA. The cells were cultured in Dulbecco's Modified Eagle Medium—HAM F12 mix (DMEM-F12), containing 10% heat inactivated-foetal bovine serum (FBS) and 2 mM L-glutamine. The cells were either passaged into fresh medium or used in an assay once 90% confluency as determined visually had been achieved.
The cells were harvested by treatment with Versene, re-suspended in fresh culture medium and plated out to yield approximately 10,000 cells per well of a 96-well plate for overnight culture in culture medium additionally supplemented with 3 μM indomethacin. For assay, the culture medium was replaced with assay medium (DMEM-F12 containing 300 μM isobutylmethylxanthine (IBMX) and 3 μM indomethacin) and incubated for 30 minutes. Following this, antagonist was then added at various concentrations such that an entire agonist concentration-effect curve could be obtained in the presence of a single concentration of the antagonist. […] The amount of cAMP in each well was then determined by [^125I]cAMP scintillation proximity assay using a proprietary kit, obtained from Amersham, Buckinghamshire, UK, and according to the manufacturers instructions.
Data from cAMP assays were expressed as pmol CAMP per well. […]

T1 sequence (P35408 whole entry): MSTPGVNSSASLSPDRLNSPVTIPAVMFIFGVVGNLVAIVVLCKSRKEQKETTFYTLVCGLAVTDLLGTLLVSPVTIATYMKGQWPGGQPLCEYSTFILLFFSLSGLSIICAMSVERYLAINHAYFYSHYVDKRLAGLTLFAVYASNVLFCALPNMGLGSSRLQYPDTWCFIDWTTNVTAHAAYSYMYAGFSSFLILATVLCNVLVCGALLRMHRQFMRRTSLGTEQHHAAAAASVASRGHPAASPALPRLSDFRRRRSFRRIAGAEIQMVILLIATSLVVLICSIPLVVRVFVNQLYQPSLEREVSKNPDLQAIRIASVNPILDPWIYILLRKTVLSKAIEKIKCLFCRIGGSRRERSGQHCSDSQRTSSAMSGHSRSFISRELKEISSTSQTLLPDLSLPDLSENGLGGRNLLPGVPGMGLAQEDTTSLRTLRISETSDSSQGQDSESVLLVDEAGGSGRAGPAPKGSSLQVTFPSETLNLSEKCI

Row | Kb | SMILES
1 | ≤ 100 nM | CCOc1c2c(c(OCC)c3ccccc13)C(=O)N(c1ccc(CC(=O)NS(=O)(=O)c3ccccc3)cc1)C2 [Example 3, N-{2-[4-(4,9-diethoxy-1-oxo-1,3-dihydro-2H-benzo[f]isoindol-2-yl)phenyl]acetyl}benzenesulfonamide]
2 | ≤ 100 nM | CCOc1c2c(c(OCC)c3ccccc13)C(=O)N(c1ccc(CC(=O)NS(=O)(=O)c3ccc(F)cc3)cc1)C2 [Example 1, N-{[4-(4,9-diethoxy-1-oxo-1,3-dihydro-2H-benzo[f]isoindol-2-yl)phenyl]acetyl}-4-fluorobenzenesulfonamide]

Target: T1, human EP4 receptor
Assay: Human EP4 Scintillation Proximity Assay ([3H]-prostaglandin E2 radioligand binding)
Set-up: expressed in transfected cells; host or cells: CHO cells infected with Semliki Forest Virus (SFV-1) particles; membranes
Conditions: membranes of CHO cells expressing human EP4 receptor; 1.25 nM [3H]-prostaglandin E2; pKi from IC50 by Cheng-Prusoff; read-out: pKi at EP4 receptors (converted)
Description: Quantification of radioligand binding by scintillation proximity assay (SPA) is a long-established principle. Briefly, the affinity of compounds for a receptor is assesssed by the specific competition between known quantities of radiolabelled ligand and compound for that receptor. Increasing concentrations of compound reduce the amount of radiolabel that binds to the receptor. This gives rise to a diminshing scintillation signal from SPA beads coated with membranes that bear the receptor. The signal may be detected with a suitable scintillation counter and the data generated may be analysed with suitable curve-fitting software.
The human EP4 SPA assay (hereafter referred to as ‘the assay’) utilises membranes prepared from Chinese Hamster Ovary (CHO cells) infected with Semilki Forest Virus (SFV). Genetically engineered SFV-1 viral particles containing the genetic sequence of the human EP4 receptor were used to infect CHO cells resulting in expression of the receptor protein in cellular membranes. Cells washed free of media are homogenised in a pH-buffered medium containing peptidase inhibitors. A suitable buffer is of the following composition: 50 mM HEPES, 1 mM EDTA, 25 μg/ml bacitracin, 100 μM leupeptin, 1 mM PMSF, 2 μM Pepstatin A, pH adjusted to 7.4 with KOH. Following removal of cell debris by a low-speed centrifugation, a pellet of membranes is prepared by a high-speed (48000 g) centrifugation of the resulting supernatant. Membrane suspensions such as that described may be stored at −80° C. until used.
For assay, membranes expressing human EP4 receptors are diluted in a pH-buffered medium and mixed with SPA beads coated with a suitable substance to facilitate the adhesion of membranes to the beads. The concentrations of membrane protein and SPA beads chosen should result in SPA binding signal of at least 300 corrected counts per minute (CCPM) when tritiated radioligand at a concentration close to its Kd (affinity value) is combined with the mixture. Non-specific binding (nsb) may be determined by competition between the radiolabelled ligand and a saturating concentration of unlabelled ligand. In order to quantify the affinity of EP4 receptor ligands, compounds are diluted in a stepwise manner across the wells of a 96-well plate. Radioligand, compound, and unlabelled ligand are then added to a 96-well plate suitable for the measurement of SPA binding signals prior to the addition of bead/membrane mixture to initiate the binding reaction. Equilibrium may be achieved by incubation at room temperature for 120 minutes prior to scintillation counting. The data so generated may be analysed by means of a computerised curve-fitting routine in order to quantify the concentration of compound that displaces 50% of the specific radioligand binding (IC50). The affinity (pKi) of the compound may be calculated from the IC50 by application of the Cheng-Prusoff correction. Suitable reagents and protocols are: reaction buffer containing 50 mM HEPES, 10 mM MgCl2, pH adjusted to 7.4 with KOH; SPA beads coated with wheatgerm agglutinin; 1.25 nM [^3H]-prostaglandin E2 as radioligand; 10 μM prostaglandin E2 as unlabelled ligand; a three-fold dilution series of compound starting at 10 μM and ending at 0.3 nM is adequate.

Row | Ki | SMILES
3 | ≤ 100 nM | CCOc1c2c(c(OCC)c3ccccc13)C(=O)N(c1ccc(CC(=O)NS(=O)(=O)c3ccccc3)cc1)C2 [Example 3, N-{2-[4-(4,9-diethoxy-1-oxo-1,3-dihydro-2H-benzo[f]isoindol-2-yl)phenyl]acetyl}benzenesulfonamide]
4 | ≤ 100 nM | CCOc1c2c(c(OCC)c3ccccc13)C(=O)N(c1ccc(CC(=O)NS(=O)(=O)c3ccc4ccccc4c3)cc1)C2 [Example 37]
5 | ≤ 100 nM | CCOc1c2c(c(OCC)c3ccccc13)C(=O)N(c1ccc(CC(=O)NS(=O)(=O)c3ccccc3C)cc1)C2 [Example 4]
6 | ≤ 100 nM | CCOc1c2c(c(OCC)c3ccccc13)C(=O)N(c1ccc(CC(=O)NS(=O)(=O)c3cccc(Br)c3)cc1)C2 [Example 10]
7 | ≤ 100 nM | CCOc1c2c(c(OCC)c3ccccc13)C(=O)N(c1ccc(CC(=O)NS(=O)(=O)c3cc(Br)ccc3OC)cc1)C2 [Example 12]
8 | ≤ 100 nM | CCOC(=O)CS(=O)(=O)NC(=O)Cc1ccc(N2Cc3c(c(OCC)c4ccccc4c3OCC)C2=O)cc1 [Example 34]
9 | ≤ 100 nM | CCOc1c2c(c(OCC)c3ccccc13)C(=O)N(c1ccc(CC(=O)NS(=O)(=O)c3ccccc3C)cc1)C2=O [Example 14]
10 | ≤ 100 nM | CCOc1c2c(c(OCC)c3ccccc13)C(=O)N(c1ccc(CC(=O)NS(=O)(=O)c3cccs3)cc1)C2 [Example 35]
11 | ≤ 100 nM | CCOc1c2c(c(OCC)c3ccccc13)C(=O)N(c1ccc(CC(=O)NS(=O)(=O)c3cccc(OC)c3)cc1)C2 [Example 13]
12 | ≤ 100 nM | CCOc1c2c(c(OCC)c3ccccc13)C(=O)N(c1ccc(CC(=O)NS(=O)(=O)c3cccc(Cl)c3)cc1)C2=O [Example 16]
13 | ≤ 100 nM | CCOc1c2c(c(OCC)c3ccccc13)C(=O)N(c1ccc(CC(=O)NS(=O)(=O)c3ccc(F)cc3)cc1)C2 [Example 1, N-{[4-(4,9-diethoxy-1-oxo-1,3-dihydro-2H-benzo[f]isoindol-2-yl)phenyl]acetyl}-4-fluorobenzenesulfonamide]
14 | ≤ 100 nM | CCOc1c2c(c(OCC)c3ccccc13)C(=O)N(c1ccc(CC(=O)NS(=O)(=O)c3ccccc3)cc1)C2=O [Example 15]
15 | ≤ 100 nM | CCOc1c2c(c(OCC)c3ccccc13)C(=O)N(c1ccc(CC(=O)NS(=O)(=O)c3ccc(C)cc3OC)cc1)C2 [Example 9]
16 | ≤ 100 nM | CCOc1c2c(c(OCC)c3ccccc13)C(=O)N(c1ccc(CC(=O)NS(=O)(=O)c3cccnc3)cc1)C2 [Example 30]
